Data published in patent US20080200337A1, “Mixed herbicide compositions for paddy field” (Bayer CropScience, priority 2007, published 2008).
Several values for one entry are separate records, joined by “and”; a condition that tells them apart may be missing. Identical values can stand only once.

Experiments:
Format in all cases: in vivo
transplanted rice [1] = test: Phytotoxicity, flooded paddy field, treatment at 1 leaf-stage (Test Example 1)
Protocol: (§1) Carrier: 5 parts by weight of acetone
(§2) Surfactant: one part by weight of benzyloxy polyglycol ether.
(§3) Above described carrier and surfactant are mixed with one part by weight of the active compound ((a) ingredient and (b) ingredient) and the resulting preparation is then diluted with water to obtain given amount of the test drug (the formulation).
(§4) In a greenhouse, seeds or tubers of Echinochloa, Scirpus juncoides Roxburgh, Monochoria vaginalis Presl, annual broad-leaved weeds (Lindernia procumbens Philcox, Lindernia dubia L. Penn., Rotala indica Koehne, Elatine triandra Schk, Ammannia multiflora Roxb.), Cyperus serotinus Rottboel and Sagittaria pygmaea Miq. were inoculated in a 500 cm^2 pot filled with paddy field soil. After 2 leaf-stage of rice were transplanted, water was poured to a depth of about 3 cm. At 1.0 leaf-stage of Echinochloa oryzicola Vasing, a prescribed, diluted solution of the formulation of each active compound and each herbicidal compound in the table was separately or simultaneously applied to the surface of water. After the treatment, the water depth of 3 cm was maintained, and herbicidal effect was examined after 4 weeks. In the assessment of the herbicidal effect and the phytotoxicity, 100% refers to complete death and 0% refers to no effect or no phytotoxicity.

transplanted rice [2] = test: Phytotoxicity, flooded paddy field, treatment at 3 leaf-stage (Test Example 2)
Protocol: as §1, §2, §3
as §4, with “Echinochloa, Cyperus difformis L.,” for “Echinochloa,”, “3.0” for “1.0”, “Echinochloa,” for “Echinochloa oryzicola Vasing,”

[3] = test system: Scirpus juncoides Roxburgh; test: Weed control, flooded paddy field, treatment at 1 leaf-stage (Test Example 1); conditions: after 4 weeks
Protocol: as §1, §2, §3, §4

[4] = test system: Monochoria vaginalis Presl; test: as above; conditions: after 4 weeks
Protocol: as §1, §2, §3, §4

Sagittaria pygmaea Miq. [5] = test: as above; conditions: after 4 weeks
Protocol: as §1, §2, §3, §4

Echinochloa [6] = test: as above; conditions: after 4 weeks
Protocol: as §1, §2, §3, §4

[7] = test system: annual broad-leaved weeds; test: as above; conditions: after 4 weeks
Protocol: as §1, §2, §3, §4

[8] = test system: Cyperus serotinus Rottboel; test: as above; conditions: after 4 weeks
Protocol: as §1, §2, §3, §4

[9] = test system: Scirpus juncoides Roxburgh; test: Weed control, flooded paddy field, treatment at 3 leaf-stage (Test Example 2); conditions: after 4 weeks
Protocol: as §1, §2, §3
as §4, with “Echinochloa, Cyperus difformis L.,” for “Echinochloa,”, “3.0” for “1.0”, “Echinochloa,” for “Echinochloa oryzicola Vasing,”

[10] = test system: Monochoria vaginalis Presl; test: as above; conditions: after 4 weeks
Protocol: as §1, §2, §3
as §4, with “Echinochloa, Cyperus difformis L.,” for “Echinochloa,”, “3.0” for “1.0”, “Echinochloa,” for “Echinochloa oryzicola Vasing,”

Sagittaria pygmaea Miq. [11] = test: as above; conditions: after 4 weeks
Protocol: as §1, §2, §3
as §4, with “Echinochloa, Cyperus difformis L.,” for “Echinochloa,”, “3.0” for “1.0”, “Echinochloa,” for “Echinochloa oryzicola Vasing,”

Echinochloa [12] = test: as above; conditions: after 4 weeks
Protocol: as §1, §2, §3
as §4, with “Echinochloa, Cyperus difformis L.,” for “Echinochloa,”, “3.0” for “1.0”, “Echinochloa,” for “Echinochloa oryzicola Vasing,”

[13] = test system: Cyperus serotinus Rottboel; test: as above; conditions: after 4 weeks
Protocol: as §1, §2, §3
as §4, with “Echinochloa, Cyperus difformis L.,” for “Echinochloa,”, “3.0” for “1.0”, “Echinochloa,” for “Echinochloa oryzicola Vasing,”

[14] = test system: annual broad-leaved weeds; test: as above; conditions: after 4 weeks
Protocol: as §1, §2, §3
as §4, with “Echinochloa, Cyperus difformis L.,” for “Echinochloa,”, “3.0” for “1.0”, “Echinochloa,” for “Echinochloa oryzicola Vasing,”

In the case of `CS(=O)(=O)c1ccc(C(=O)C2C(=O)CCCC2=O)c(Cl)c1COCC1CCCO1` (stereo not drawn) [(b-7), 2-{2-chloro-4-mesyl-3-[(tetrahydrofuran-2-ylmethoxy)methyl]-benzoyl}-cyclohexan-1,3-dione], the “Phytotoxicity (%) ORYSP” value (transplanted rice [1]; 200 g ai/ha, treatment at 1 leaf-stage, after 4 weeks) is reported as 0%, the “Phytotoxicity (%) ORYSP” value (transplanted rice [2]; rice, in vivo, 4 weeks) is reported as 0% and the “Herbicidal effect (%) SCPSS” value ([3]; 200 g ai/ha) is reported as 95%. The “Herbicidal effect (%) MOOVP” value ([4]; 200 g ai/ha) was 90%, the “Herbicidal effect (%) SAGPY” value (Sagittaria pygmaea Miq. [5]; 200 g ai/ha) was 90% and the “Herbicidal effect (%) ECHSS” value (Echinochloa [6]; 200 g ai/ha) was 95%. For the same molecule, the “Herbicidal effect (%) BBBBB” value ([7]; 200 g ai/ha) was 90%, the “Herbicidal effect (%) CYPSEE” value ([8]; 200 g ai/ha) was 90% and the “Herbicidal effect (%) SCPSS” value ([9]; 200 g ai/ha) was 88%. The “Herbicidal effect (%) MOOVP” value ([10]; 200 g ai/ha) was 95%, the “Herbicidal effect (%) SAGPY” value (Sagittaria pygmaea Miq. [11]; 200 g ai/ha) was 80% and the “Herbicidal effect (%) ECHSS” value (Echinochloa [12]; 200 g ai/ha) was 70%. For the same molecule, the “Herbicidal effect (%) CYPSEE” value ([13]; 200 g ai/ha) was 70%.
With `COC(=O)c1ccccc1CS(=O)(=O)NC(=O)Nc1nc(OC)cc(OC)n1` [(b-4), bensulfuron methyl] the “Phytotoxicity (%) ORYSP” value (transplanted rice [1]; rice, in vivo, 4 weeks) was 0%, the “Phytotoxicity (%) ORYSP” value (transplanted rice [2]; rice, in vivo, 4 weeks) was 0% and the “Herbicidal effect (%) SCPSS” value ([3]; 50 g ai/ha) was 90%. For the same molecule, the “Herbicidal effect (%) MOOVP” value ([4]; 50 g ai/ha) was 90%, the “Herbicidal effect (%) SAGPY” value (Sagittaria pygmaea Miq. [5]; 50 g ai/ha) was 90% and the “Herbicidal effect (%) ECHSS” value (Echinochloa [6]; 50 g ai/ha) was 50%. The “Herbicidal effect (%) BBBBB” value ([7]; 50 g ai/ha) was 90%, the “Herbicidal effect (%) CYPSEE” value ([8]; 50 g ai/ha) was 85% and the “Herbicidal effect (%) SCPSS” value ([9]; 50 g ai/ha) was 85%. The “Herbicidal effect (%) MOOVP” value ([10]; 50 g ai/ha) was 90%, the “Herbicidal effect (%) SAGPY” value (Sagittaria pygmaea Miq. [11]; 50 g ai/ha) was 80% and the “Herbicidal effect (%) ECHSS” value (Echinochloa [12]; 50 g ai/ha) was 20%. For the same molecule, the “Herbicidal effect (%) BBBBB” value ([14]; 50 g ai/ha) was 90% and the “Herbicidal effect (%) CYPSEE” value ([13]; 50 g ai/ha) was 80%.
`Cc1c(Cl)ccc(OC(C)C(=O)Nc2ccccc2)c1Cl` (stereo not drawn) [(b-1), clomeprop] was tested, and the “Phytotoxicity (%) ORYSP” value (transplanted rice [1]; 350 g ai/ha, treatment at 1 leaf-stage, after 4 weeks) was 10% and 0%, the “Phytotoxicity (%) ORYSP” value (transplanted rice [2]; rice, in vivo, 4 weeks) was 0% and the “Herbicidal effect (%) SCPSS” value ([3]; 350 g ai/ha) was 90%. The “Herbicidal effect (%) MOOVP” value ([4]; 350 g ai/ha) was 100%, the “Herbicidal effect (%) SAGPY” value (Sagittaria pygmaea Miq. [5]; 350 g ai/ha) was 90% and the “Herbicidal effect (%) ECHSS” value (Echinochloa [6]; 350 g ai/ha) was 20%. For the same molecule, the “Herbicidal effect (%) BBBBB” value ([7]; 350 g ai/ha) was 100%, the “Herbicidal effect (%) CYPSEE” value ([8]; 350 g ai/ha) was 50% and the “Herbicidal effect (%) SCPSS” value ([9]; 350 g ai/ha) was 90%. For the same molecule, the “Herbicidal effect (%) MOOVP” value ([10]; 350 g ai/ha) was 100%, the “Herbicidal effect (%) SAGPY” value (Sagittaria pygmaea Miq. [11]; 350 g ai/ha) was 90% and the “Herbicidal effect (%) ECHSS” value (Echinochloa [12]; 350 g ai/ha) was 20%. For the same molecule, the “Herbicidal effect (%) BBBBB” value ([14]; 350 g ai/ha) was 90% and the “Herbicidal effect (%) CYPSEE” value ([13]; 350 g ai/ha) was 20%.
With `CC(C)(NC(=O)C(Br)C(C)(C)C)c1ccccc1` (stereo not drawn) [(b-2), bromobutide] the “Phytotoxicity (%) ORYSP” value (transplanted rice [1]; 750 g ai/ha, treatment at 1 leaf-stage, after 4 weeks) was 0%, the “Phytotoxicity (%) ORYSP” value (transplanted rice [2]; rice, in vivo, 4 weeks) was 0% and the “Herbicidal effect (%) SCPSS” value ([3]; 750 g ai/ha) was 90%. For the same molecule, the “Herbicidal effect (%) MOOVP” value ([4]; 750 g ai/ha) was 80%, the “Herbicidal effect (%) SAGPY” value (Sagittaria pygmaea Miq. [5]; 750 g ai/ha) was 70% and the “Herbicidal effect (%) ECHSS” value (Echinochloa [6]; 750 g ai/ha) was 100%. The “Herbicidal effect (%) BBBBB” value ([7]; 750 g ai/ha) was 50%, the “Herbicidal effect (%) CYPSEE” value ([8]; 750 g ai/ha) was 70% and the “Herbicidal effect (%) SCPSS” value ([9]; 750 g ai/ha) was 80%. For the same molecule, the “Herbicidal effect (%) MOOVP” value ([10]; 750 g ai/ha) was 70%, the “Herbicidal effect (%) SAGPY” value (Sagittaria pygmaea Miq. [11]; 750 g ai/ha) was 40% and the “Herbicidal effect (%) ECHSS” value (Echinochloa [12]; 750 g ai/ha) was 45%. The “Herbicidal effect (%) BBBBB” value ([14]; 750 g ai/ha) was 30% and the “Herbicidal effect (%) CYPSEE” value ([13]; 750 g ai/ha) was 90%.
For `COCc1cccc(C(O)c2nc(OC)cc(OC)n2)c1NS(=O)(=O)C(F)F` (stereo not drawn) [(b-8), pyrimisulfan], the “Phytotoxicity (%) ORYSP” value (transplanted rice [1]; 50 g ai/ha, treatment at 1 leaf-stage, after 4 weeks) was 15%, the “Phytotoxicity (%) ORYSP” value (transplanted rice [2]; 50 g ai/ha, treatment at 3 leaf-stage, after 4 weeks) was 5% and the “Herbicidal effect (%) SCPSS” value ([3]; 50 g ai/ha) was 95%. The “Herbicidal effect (%) MOOVP” value ([4]; 50 g ai/ha) was 95%, the “Herbicidal effect (%) SAGPY” value (Sagittaria pygmaea Miq. [5]; 50 g ai/ha) was 90% and the “Herbicidal effect (%) ECHSS” value (Echinochloa [6]; 50 g ai/ha) was 95%. For the same molecule, the “Herbicidal effect (%) BBBBB” value ([7]; 50 g ai/ha) was 95%, the “Herbicidal effect (%) CYPSEE” value ([8]; 50 g ai/ha) was 95% and the “Herbicidal effect (%) SCPSS” value ([9]; 50 g ai/ha) was 90%. For the same molecule, the “Herbicidal effect (%) MOOVP” value ([10]; 50 g ai/ha) was 95%, the “Herbicidal effect (%) SAGPY” value (Sagittaria pygmaea Miq. [11]; 50 g ai/ha) was 85% and the “Herbicidal effect (%) ECHSS” value (Echinochloa [12]; 50 g ai/ha) was 85%. The “Herbicidal effect (%) BBBBB” value ([14]; 50 g ai/ha) was 85% and the “Herbicidal effect (%) CYPSEE” value ([13]; 50 g ai/ha) was 90%.
